Results reported in paper PMC11546719, “Immune Modulatory Profile of the Pateamines PatA and Des-Methyl Des-Amino PatA” (International Journal of Molecular Sciences, 2024).
Where two headings read alike, the source gives them in different places. Values belong to the compound of their own block, whether it stands above or below them.

Key:
B cells = test: Energy metabolism (Seahorse OCR/ECAR) in B cells; assay type: cell-based, human; details: 5 days, PatA, DMDA 0.25-0.5 nM, silvestrol 5 nM, rapamycin 10 ng/mL
Experimental: (§1) The determination of the energy metabolism was performed as described previously. Briefly, for the analysis of the extracellular acidification rate (ECAR) and the oxygen consumption rate (OCR) for human B cells, Tcells, M1 MdMs and M2 MdMs, the Seahorse XFe96 FluxPak (Agilent, Waldbronn, Germany) was used as recommended by the manufacturer. MdMs were polarized to M1 or M2 MdMs in the presence of PatA (0.5, 2.5, 5 nM), DMDA (0.5, 2.5, 5 nM) or vehicle (DMSO) for 48 h or 24 h, respectively. T cells were activated in the presence of PatA (0.25, 0.5 nM), DMDA (0.25, 0.5 nM), silvestrol or DMSO. B cells were activated in the presence of PatA (0.25, 0.5 nM), DMDA (0.25, 0.5 nM), silvestrol (5 nM) or rapamycin (10 ng/mL positive control). Cells were washed with Seahorse XF RPMI medium pH 7.4 (Agilent, Waldbronn, Germany) and OCR and ECAR were measured as octuplicates for a period of 160 min using the Seahorse XFe96 Analyzer (Agilent, Waldbronn, Germany) and analyzed by Wave Software 2.6.3.8 (Agilent, Waldbronn, Germany). The relative values were calculated by relating the OCR or ECAR values obtained after 50 min to the values of the vehicle control (not stimulated).

T cells = test: Energy metabolism (Seahorse OCR/ECAR) in T cells; assay type: cell-based, human; details: 5 days, PatA, DMDA 0.25-0.5 nM, silvestrol 5 nM
Experimental: as §1

Human primary T cells = test system: Human primary T cells; parameters: method as in PMID 36982945; details: summary table ref 11; cited from earlier work
M1 MdMs [1] = test system: M1 MdMs; parameters: method as in PMID 36982945; details: summary table ref 11; cited from earlier work
M2 MdMs = test system: M2 MdMs; parameters: method as in PMID 36982945; details: summary table ref 11; cited from earlier work
TK6 cells = test: Micronuclei assay; assay type: cell-based, human; details: 4 h incubation then 44 h
Experimental: The In-Vitro Micronuclei Plus assay (Becton Dickinson, Heidelberg, Germany) was performed as described by the supplier. Briefly, 2 × 10^4 TK6 cells were incubated with increasing concentrations of PatA, DMDA and silvestrol for 4 h. The cells were washed with PBS and incubated in fresh medium (without test substance) for 44 h. The cells were centrifuged (300× g) for 5 min, the […] and placed on ice for 20 min. Then, 50 µL of Complete Nucleic Acid Dye A Solution was added. The plate was placed on ice and exposed to visible light for 30 min. The Nucleic Acid Dye A solution was removed and the cells were washed with 0.15 mL of cold 1x Buffer Solution. An amount of 100 µL Complete Lysis Solution 1 was added, followed by gently mixing of the plate for 5 s and incubation of 1 h in the dark at 37 °C. Then, 100 µL Complete Lysis Solution 2 was added and incubated for 30 min in the dark at room temperature. The cells were analyzed via flow cytometry with the MACSQuant 10 (Miltenyi GmbH, Bergisch Gladbach, Germany).

M1 MdMs [2] = test system: M1 MdMs; parameters: method as in PMID 36982945; details: M1 MdMs ref 11; cited from earlier work
Human primary B cells [3] = test system: Human primary B cells; parameters: method as in PMID 36982945; details: summary table ref 11; cited from earlier work
Calu-3 cell barrier = test: Transport assay, Calu-3 cell barrier; assay type: in vitro ADME
Experimental: (§2) The transport assay was achieved as described previously. Briefly, 1 × 10^5 CaCo-2 or 5 × 10^4 Calu-3 cells in 300 µL medium were seeded on 24-well ThinCerts (pre-coated with FCS for 60 min) and in the lower compartment, 1 mL culture medium per well was added. The Caco-2 cell barrier was generated over 20 days and the Calu-3 barrier was generated over 14 days. DMDA (0 nM, 5 nM, 50 nM, 100 nM), PatA (0 nM, 5 nM, 50 nM, 100 nM), 200 µM famotidine, 200 µM lucifer yellow or 200 µM carbamazepine diluted in medium was added to the apical compartment and incubated for 4 h or 24 h. The medium from the basolateral and apical compartment was collected and stored at −20 °C and analyzed using LC-MS/MS. To obtain the transport rate, the drug amount in the basolateral compartment at 4 h or 24 h was related to the drug amount in the apical compartment (0 h).
(§3) The detailed method for the analysis of DMDA, PatA, carbamazepine and famotidine using LC-MS/MS is described in the Supplementary Materials.

Caco-2 cell barrier = test: Transport assay, Caco-2 cell barrier; assay type: in vitro ADME
Experimental: as §2, §3

Human primary B cells [4] = test: B cell activation with IL-21, sCD40L, CpG and anti-IgM; assay type: cell-based; details: activated B cells, 5 days
Experimental: B cells were activated as described by Khoenkhoen et al.. […].
Surface marker analysis was performed as described previously. Briefly, 1.5–2 × 10^5 cells of each sample were blocked with human FcR Blocking Reagent (15 min, 4 °C). […]. Afterwards, samples were stained with a mixture of different surface marker antibodies (15 min, 4 °C) and measured with MACSQuant® Analyzer 10 flow cytometer. For M1-/M2-MdMs anti-CD86, anti-CD14, anti-HLA-DR, anti-CD206, anti-CD80, anti-TREM2 and anti-CD163 were used. For T cells, anti-CD69, anti-CD54, anti-CD49a, anti-CD18, anti-CD134, anti-CD154, anti-CD3 and anti-CD25 were analyzed. For B cells, anti-CD27, anti-CD19 and anti-CD38 were applied. For T cell and B cell proliferation assay, freshly isolated T and B cells were stained with CTV and detected using flow cytometry. Naïve B cells were characterized as CD19^+CD27^lowCD38^med, memory B cells as CD19^+CD27^med CD38^low and plasma cells as CD27^+CD38^+ cells. M1 MdMs and M2 MdMs cell population was gated using FSC/SSC channel. T cells were gated as CD3^+CD25^+ positive cells. The geometric mean of the fluorescent intensity was calculated using FlowJo software v10 (Treestar, Ashland, […], USA). Fold induction of surface marker expression was calculated using the DMSO-treated cells as the control.
For determination of cytokine concentrations in the supernatant of humane immune cells, cytometric bead array (BD Biosciences, Heidelberg, Germany) for IL-10, IL-17, IL-8, IL-6, IFN-γ and CCL2 was used. For the detection of CCL18, CCL17, IgG, IgA and PGE2, an ELISA was performed. The cytometric bead arrays and the ELISAs were performed according to the protocol of the supplier.

[5] = 4 and 24 h, PatA, DMDA 5, 50, 100 nM, controls 200 µM

Compound: COC(=O)[C@H]1[C@@H](O)[C@@]2(O)c3c(OC)cc(O[C@@H]4O[C@@H]([C@H](O)CO)CO[C@H]4OC)cc3O[C@@]2(c2ccc(OC)cc2)[C@@H]1c1ccccc1 [Silvestrol, silvestrol]
Energy metabolism: glycolysis (ECAR) and oxidative phosphorylation (OCR) (B cells): increased glycolysis and oxidative phosphorylation
Energy metabolism: glycolysis (ECAR) and oxidative phosphorylation (OCR) (T cells): did not alter the energy metabolism
Effect on the release of inflammatory markers, T Cells (Human primary T cells): IL-10↑, IFN-γ↑
Effect on the release of inflammatory markers, M1 MdM (M1 MdMs [1]): IL-6↓, IL-8↓, CCL2↓, TNF-α↑
Effect on the release of inflammatory markers, M2 MdM (M2 MdMs): IL-8↓, CCL2↓,
Genotoxic potential: micronuclei (clastogenic) and hypodiploid cells (aneugenic) (TK6 cells): showed no genotoxic effects
Energy metabolism: glycolysis and oxidative phosphorylation (M1 MdMs [2]): reduced glycolysis and oxidative phosphorylation
Effect on the release of inflammatory markers, B Cells (Human primary B cells [3]): IgA↓, IgG↓

Compound: CONC(=O)[C@H]1[C@@H](O)[C@@]2(O)c3c(OC)cc(OC)cc3O[C@@]2(c2ccc(OC)cc2)[C@@H]1c1ccccc1 [CR31-B (-)]
Effect on the release of inflammatory markers, T Cells (Human primary T cells): IL-10↓, IL-17↓, IFN-γ↓
Effect on the release of inflammatory markers, M1 MdM (M1 MdMs [1]): IL-6↓, IL-8↓, CCL2↓, CCL18↓
Effect on the release of inflammatory markers, M2 MdM (M2 MdMs): TNF-α↑, CCL2↓, CCL17↓, CCL18↓,
Effect on the release of inflammatory markers, B Cells (Human primary B cells [3]): IgA↓, IgG↓

Permeability / transport rate across Calu-3 cell barrier (in words) (Calu-3 cell barrier): low permeability
Permeability / transport rate across Caco-2 cell barrier (in words) (Caco-2 cell barrier; Caco-2): low permeability
Compound: lucifer yellow [reference compound]

Compound: CO[C@H]1C[C@@H]2CC[C@@H](C)[C@@](O)(O2)C(=O)C(=O)N2CCCC[C@H]2C(=O)O[C@H]([C@H](C)C[C@@H]2CC[C@@H](O)[C@H](OC)C2)CC(=O)[C@H](C)/C=C(\C)[C@@H](O)[C@@H](OC)C(=O)[C@H](C)C[C@H](C)/C=C/C=C/C=C/1C [rapamycin, reference compound]
B cell activation (formation of plasma cells, proliferation, release of IgGs) (Human primary B cells [4]): prevented B cell activation
Cell viability (zombie staining) (Human primary B cells [4]): did not reduce cell viability

Permeability / transport rate across Calu-3 cell barrier (in words) (Calu-3 cell barrier; [5]): high
Permeability / transport rate across Caco-2 cell barrier (in words) (Caco-2 cell barrier; [5]): high
Compound: NC(=O)N1c2ccccc2C=Cc2ccccc21 [carbamazepine, reference compound]

Compound: COc1cc2c(c(OC)n1)[C@]1(O)[C@H](O)[C@H](CN(C)C)[C@@H](c3ccccc3)[C@]1(c1ccc(C#N)cc1)O2 [Zotatifin, zotatifin]
Effect on the release of inflammatory markers, T Cells (Human primary T cells): IL-10↓, IL-17↓, IFN-γ↓
Effect on the release of inflammatory markers, M1 MdM (M1 MdMs [1]): No effect
Effect on the release of inflammatory markers, M2 MdM (M2 MdMs): IL-10↓, CCL18↓
Effect on the release of inflammatory markers, B Cells (Human primary B cells [3]): IgA↓, IgG↓

Compound: COS(C)(=O)=O [methylmethansulfonat (MMS), methylmethansulfonat, reference compound]
Genotoxic potential: micronuclei (clastogenic) and hypodiploid cells (aneugenic) (TK6 cells): significant increase in micronuclei and hypodiploid cells

Permeability / transport rate across Calu-3 cell barrier (in words) (Calu-3 cell barrier; [5]): low permeability
Permeability / transport rate across Caco-2 cell barrier (in words) (Caco-2 cell barrier; [5]): low permeability
Compound: NC(N)=Nc1nc(CSCCC(N)=NS(N)(=O)=O)cs1 [famotidine, reference compound]
